Here are results for 20 compounds from ChEMBL document CHEMBL1127817, “Antitumor agents. 150. 2',3',4',5',5,6,7-substituted 2-phenyl-4-quinolones and related compounds: their synthesis, cytotoxicity, and inhibition of tubulin polymerization” (J Med Chem, 1994).

Where only a bound is given, the exact number is not on record here.

The subject of one assay is HCT-116. Nature of the assay: In vitro inhibition of tumor cell growth of HCT116, colon cancer cell line. In kind it is functional. The following applies: Homo sapiens.
For the next assay, the system named is NCI-H226. Nature of the assay: In vitro inhibition of tumor cell growth of NCI-H226, a non small-cell lung cancer cell line. The class given is functional. The following applies: Homo sapiens.
For another assay, the system named is OVCAR-3. Nature of the assay: In vitro inhibition of tumor cell growth of OVCAR-3, ovarian cancer cell line. In kind it is functional. The following applies: Homo sapiens.
Another assay has as its system RXF 393. The assay can be described thus: In vitro inhibition of tumor cell growth of RXF-393, renal cancer cell line. The following applies: Homo sapiens. The class given is functional.
The subject of another assay is SF-268. The assay can be described thus: In vitro inhibition of tumor cell growth of SF-268, CNS tumor cell line. In kind it is functional. The following applies: Homo sapiens.
The next assay relates to SF-295. Nature of the assay: In vitro inhibition of tumor cell growth of SF-295, CNS tumor cell line. In kind it is functional. The following applies: Homo sapiens.
Another assay concerns the target Tubulin beta chain (Bos taurus, UniProt Q6B856). The assay can be described thus: Inhibition of tubulin polymerization. The class given is functional.
A further assay deals with KM-20L2. The assay can be described thus: In vitro inhibition of tumor cell growth of KM20L2, colon cancer cell line. The following applies: Homo sapiens. The class given is functional.
Another assay has as its system DMS-114. Nature of the assay: In vitro inhibition of tumor cell growth of DMS114, a small-cell lung cancer cell line. The following applies: Homo sapiens.
For a further assay, the system named is SK-MEL-5. Nature of the assay: In vitro inhibition of tumor cell growth of SK-Mel-5, melanoma cell line. In kind it is functional. The following applies: Homo sapiens.

Sequence of Tubulin beta chain (Q6B856 whole entry): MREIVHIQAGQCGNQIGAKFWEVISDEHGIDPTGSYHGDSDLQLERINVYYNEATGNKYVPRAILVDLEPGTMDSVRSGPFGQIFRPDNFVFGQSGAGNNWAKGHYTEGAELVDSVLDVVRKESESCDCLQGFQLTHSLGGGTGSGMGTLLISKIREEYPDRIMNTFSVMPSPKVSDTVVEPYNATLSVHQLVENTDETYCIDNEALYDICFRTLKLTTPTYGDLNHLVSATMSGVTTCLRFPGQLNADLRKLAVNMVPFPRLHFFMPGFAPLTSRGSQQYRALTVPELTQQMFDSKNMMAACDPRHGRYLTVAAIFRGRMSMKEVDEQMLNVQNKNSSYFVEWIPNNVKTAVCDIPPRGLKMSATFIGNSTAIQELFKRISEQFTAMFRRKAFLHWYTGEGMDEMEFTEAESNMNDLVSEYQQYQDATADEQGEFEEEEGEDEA

As a reminder, the GI50 is the concentration that inhibits growth by half. A low value points to more potent growth inhibition. The IC50 is the concentration that inhibits the measured activity by half. Higher therefore signals weaker potency in that assay. For the compound `COc1cc2nc(-c3cccc(N(C)C)c3)cc(O)c2cc1OC`, the GI50 was 5.01 µM with HCT-116; 1.86 µM in the assay on NCI-H226; less than 1 µM in the assay on OVCAR-3; 2.24 µM in the assay on RXF 393; 5.25 µM in the assay with SF-268; 1.95 µM with SF-295. Moreover, the GI50 in the assay on KM-20L2 was 2 µM; in the assay with DMS-114, 4.79 µM. In addition, the IC50 at Tubulin beta chain was 15 µM.
`COc1ccc2c(c1)CCc1c-2nc2cc3c(cc2c1O)OCO3`: the GI50 with HCT-116, with NCI-H226, in the assay on OVCAR-3, in the assay with RXF 393, in the assay on SF-268 and with SK-MEL-5 was greater than 100 µM in each case. The GI50 in the assay with SF-295 and in the assay on KM-20L2 was greater than 100 µM each time.
With `Oc1cc(-c2ccc[nH]2)nc2cc3c(cc12)OCO3`, the GI50 in the assay with HCT-116 is 29.5 µM; with NCI-H226, 35.5 µM; with OVCAR-3, 30.9 µM; in the assay with RXF 393, 15.8 µM; in the assay with SF-268 it was greater than 100 µM; in the assay with SK-MEL-5, 7.76 µM. In addition, the GI50 is 33.9 µM with SF-295, 20 µM with KM-20L2 and 32.4 µM in the assay with DMS-114. Further, the IC50 against Tubulin beta chain turned out to be 18 µM.
Consider `COc1ccc(-c2cc(O)c3cc4c(cc3n2)OCO4)cc1OC`, for which the GI50 in the assay on HCT-116, in the assay on NCI-H226, in the assay on OVCAR-3, in the assay on RXF 393, with SF-268 and with SK-MEL-5 was greater than 100 µM throughout. Besides, the GI50 in the assay with SF-295, in the assay with KM-20L2 and in the assay with DMS-114 was greater than 100 µM throughout. In addition, at Tubulin beta chain, the IC50 is greater than 40 µM.
On to `COc1ccc(CCc2cc(OC)c(OC)c(OC)c2)cc1O`, for which the IC50 on Tubulin beta chain worked out at 0.63 µM.
On to `Oc1cc(-c2ccccn2)nc2cccc(F)c12`, for which the GI50 in the assay on NCI-H226 is greater than 100 µM; in the assay on OVCAR-3, greater than 100 µM; with RXF 393, greater than 100 µM; in the assay on SK-MEL-5, 61.7 µM; in the assay on SF-295 it was greater than 100 µM; in the assay on KM-20L2 it was greater than 100 µM. The GI50 in the assay with DMS-114 is greater than 100 µM. For the same compound, the IC50 against Tubulin beta chain was greater than 40 µM.
In the case of `COc1ccc(-c2cc(O)c3cc(OC)ccc3n2)cc1`, the GI50 was greater than 100 µM in the assay with HCT-116; greater than 100 µM in the assay with NCI-H226; greater than 100 µM with OVCAR-3; greater than 100 µM in the assay with RXF 393; 36.3 µM in the assay with SF-268; greater than 100 µM in the assay with SK-MEL-5. The GI50 in the assay with KM-20L2 and with DMS-114 was greater than 100 µM each time. This compound yielded an IC50 against Tubulin beta chain greater than 40 µM.
Regarding `COc1ccc2nc(-c3ccc(O)cc3)cc(O)c2c1`, the GI50 in the assay on HCT-116 is 0.209 µM; with NCI-H226, 0.209 µM; in the assay on OVCAR-3, 0.302 µM; in the assay with RXF 393 it was 0.17 µM; with SF-268, 0.417 µM; in the assay with SK-MEL-5, 0.288 µM. Moreover, the GI50 in the assay with SF-295 was 0.245 µM; in the assay with KM-20L2, 0.407 µM; in the assay with DMS-114, 0.178 µM. The compound further registered an IC50 on Tubulin beta chain of 5.6 µM.
Take `CN(C)c1cccc(-c2cc(O)c3ccccc3n2)c1`: the GI50 in the assay on HCT-116 was 58.9 µM; in the assay on NCI-H226 it was 29.5 µM; with OVCAR-3, 41.7 µM; in the assay with RXF 393, 35.5 µM; with SF-268 it was 75.9 µM; in the assay with SF-295, 28.2 µM. Moreover, the GI50 was 34.7 µM in the assay with KM-20L2 and 45.7 µM in the assay on DMS-114. The same compound gave an IC50 against Tubulin beta chain of 1.5 µM.
For the compound `COc1cc(-c2cc(O)c3ccccc3n2)cc(OC)c1OC`, the GI50 with HCT-116, with NCI-H226, in the assay on OVCAR-3, in the assay on RXF 393, in the assay with SF-268 and in the assay on SF-295 was greater than 100 µM each time. The GI50 in the assay on KM-20L2 and in the assay with DMS-114 was greater than 100 µM each time. This compound also came in with an IC50 on Tubulin beta chain greater than 40 µM.
In the case of `CN(C)c1ccc(-c2cc(O)c3ccccc3n2)cc1`, the GI50 with HCT-116, in the assay with NCI-H226, in the assay with OVCAR-3, in the assay on RXF 393, with SF-268 and with SF-295 was greater than 100 µM each time. The concentration for 50% growth inhibition (GI50) in the assay with KM-20L2 and with DMS-114 was greater than 100 µM throughout. At Tubulin beta chain, this compound showed an IC50 greater than 40 µM.
On to `COc1cccc(-c2cc(O)c3cc(OC)c(OC)cc3n2)c1`, for which the GI50 with HCT-116 is 58.9 µM; with NCI-H226, 21.4 µM; with OVCAR-3 it was 33.9 µM; in the assay with RXF 393, 33.1 µM; with SF-268 it was 50.1 µM; in the assay with SF-295 it was 40.7 µM. The GI50 with KM-20L2 is 24 µM; in the assay with DMS-114, 55 µM. Further, half-maximal inhibition on Tubulin beta chain (IC50) required 4.3 µM.
On to `Oc1cc(/C=C/c2ccccc2)nc2cc3c(cc12)OCO3`, for which the GI50 in the assay on HCT-116 is 2.82 µM; with NCI-H226, 2.88 µM; in the assay on OVCAR-3, 2.24 µM; in the assay on RXF 393, 4.27 µM; in the assay on SF-268, 7.08 µM; in the assay with SK-MEL-5, 2.19 µM. In the assay on SF-295, this compound had a GI50 of 3.02 µM. Further, half-maximal inhibition on Tubulin beta chain (IC50) was put at 2.3 µM.
Turning to `COc1ccc(-c2cc(O)c3cc(OC)c(OC)cc3n2)cc1OC`, the GI50 is greater than 100 µM in the assay with HCT-116; greater than 100 µM in the assay on NCI-H226; greater than 100 µM in the assay with OVCAR-3; 67.6 µM in the assay with RXF 393; greater than 100 µM in the assay on SF-268; greater than 100 µM with SK-MEL-5. Besides, in the assay with SF-295, the GI50 was greater than 100 µM. Besides, the IC50 on Tubulin beta chain was greater than 40 µM.
In the case of `COc1cc2nc(-c3ccccc3)cc(O)c2cc1OC`, the IC50 at Tubulin beta chain is 18 µM.
Turning to `Oc1cc(-c2ccccc2)nc2cc3c(cc12)OCO3`, the GI50 in the assay on HCT-116 was 0.0708 µM; with NCI-H226, 0.316 µM; with OVCAR-3, 0.162 µM; with RXF 393, 0.112 µM; with SF-268 it was 0.0302 µM; with SK-MEL-5, 0.0355 µM. In addition, the GI50 with SF-295 was 0.191 µM; with KM-20L2 it was 0.182 µM. Inhibition at Tubulin beta chain was half-maximal at 0.63 µM (IC50).
For the compound `Oc1cc(-c2ccccn2)nc2cc(F)ccc12`, the GI50 in the assay on HCT-116 is 43.7 µM; in the assay on NCI-H226, greater than 100 µM; in the assay on SF-268, 29.5 µM; with SK-MEL-5, 44.7 µM; in the assay with SF-295, greater than 100 µM; with KM-20L2, greater than 100 µM. The same compound gave a GI50 in the assay on DMS-114 of 52.5 µM. Moreover, the IC50 against Tubulin beta chain is greater than 40 µM.
Regarding `COc1cccc(-c2cc(O)c3ccccc3n2)c1`, the GI50 was 5.75 µM with HCT-116; 2.82 µM with NCI-H226; 5.5 µM with OVCAR-3; 6.61 µM in the assay on RXF 393; 6.76 µM with SF-268; 2.29 µM with SF-295. Besides, the GI50 is 8.51 µM in the assay on KM-20L2 and 5.62 µM in the assay on DMS-114. Also, at Tubulin beta chain, the IC50 is 1.4 µM.
On to `Oc1cc(-c2ccc(Oc3ccccc3)cc2)nc2cc3c(cc12)OCO3`, for which the GI50 in the assay with HCT-116, in the assay on OVCAR-3, in the assay on RXF 393, in the assay on SF-268, in the assay on SK-MEL-5 and with SF-295 was greater than 100 µM in each case. For the same compound, the GI50 in the assay on KM-20L2 and with DMS-114 was greater than 100 µM in each case. On Tubulin beta chain, this compound came in with an IC50 greater than 40 µM.
On to `Oc1c2c(nc3cc4c(cc13)OCO4)-c1ccccc1CCC2`, for which the GI50 in the assay with HCT-116 is 28.2 µM; in the assay with NCI-H226, greater than 100 µM; with OVCAR-3, greater than 100 µM; in the assay on RXF 393, greater than 100 µM; in the assay on SF-268 it was greater than 100 µM; with SK-MEL-5, greater than 100 µM. In the assay on SF-295, this compound gave a GI50 of 19.5 µM. This compound displayed an IC50 against Tubulin beta chain greater than 40 µM.
